# Measured values published in patent US12521375B2, “Pharmaceutical composition for treating fatty liver disease” (Shionogi & Co., Ltd., priority 2020, dated 2026).
# pIC50: −log10 of the molar value. “And” between values parts separate entries of the source, which are not always exact repeats. Identical values can stand only once.
# Columns and labels:
# [1] = test system: high-fat diet-loaded mice with spontaneous fatty liver; assay: Effect on liver fibrosis progression in high-fat diet-loaded mice with spontaneous fatty liver; assay type: in vivo, FLS.B6-Lep<ob>/Shi mice; parameters: 3-hydroxybutyric acid in plasma: unit not given here; conditions: for Amount of triglyceride in liver / Sirius red-positive area rate / 3-hydroxybutyric acid in plasma / Plasma triglyceride concentration / Change in hemoglobin A1c (day 26 of administration) − (before start of administration) / Hemoglobin A1c, Before start of administration / Hemoglobin A1c, Day 26 of administration: bid; for Amount of triglyceride in liver / Sirius red-positive area rate: oral, 4 weeks; for Change in hemoglobin A1c (day 26 of administration) − (before start of administration) / Hemoglobin A1c, Before start of administration / Hemoglobin A1c, Day 26 of administration: individual animals
# Procedure: Eight-week-old male FLS.B6-Lep/Shi mice were fed a high-fat diet (60 kcal % fat content, using shortening, containing 2% cholesterol and 8.7% fructose), and at the same time, the compound of the present invention was suspended in a 0.5% MC aqueous solution so as to have a dose of 5.5 to 60 mg/kg/5 mL, and orally repeatedly administered (b.i.d.) for 4 weeks. Blood was collected from the tail vein during the repeated administration period, and biochemical parameters in plasma were measured. After 4 weeks of administration, blood was collected from the abdominal vena cava under anesthesia, and then the liver was collected. Paraffin-embedded sections prepared from the collected liver were subjected to Sirius red staining. A degree of fibrosis progression in the liver was determined from a Sirius red-positive area rate and evaluated.
# [2] = Metabolic stability test (rat); assay type: in vitro ADME
# Procedure: [Worded in the source for another species; this species is reported under the same test.] (§1) Commercially available pooled human liver microsomes were reacted with the compound of the present invention for a given time. A residual rate was calculated by comparison between the reacted sample and the unreacted sample to evaluate a degree at which the compound of the present invention is metabolized in the liver.
# (§2) The compound was reacted at 37° C. for 0 minutes or 30 minutes in the presence of 1 mmol/L NADPH in 0.2 mL of a buffer (50 mmol/L Tris-HCl pH 7.4, 150 mmol/L potassium chloride, and 10 mmol/L magnesium chloride) containing 0.5 mg protein/mL of the human liver microsomes (oxidative reaction). After the reaction, 50 μL of the reaction solution was added to 100 μL of a solution of methanol/acetonitrile=1/1 (v/v) and mixed, and the mixture was centrifuged at 3000 rpm for 15 minutes. The compound of the present invention in the centrifuged supernatant was quantified by LC/MS/MS or solid-phase extraction (SPE)/MS. The amount of the compound of the present invention remained after the reaction was calculated with the amount of the compound at 0 minutes of the reaction defined as 100%.
# Crl:CD (SD) rats = assay: Influence on platelet count; assay type: in vivo; conditions: for Platelet count: oral, 4 days, SD rats; for platelet count in SD rats (in words): within a dose range used for evaluation (50 to 600 mg/kg/day)
# Procedure: The compound of the present invention was suspended in a 0.5% methylcellulose solution so as to have a dose of 50 to 600 mg/kg/day, and was orally repeatedly administered for 4 days to 6-week-old male Crl:CD (SD) rats under non-fasted conditions. On day 5 from the start of administration, blood was collected from the abdominal vena cava under anesthesia, and […]. A platelet count in plasma was evaluated with an automatic hemocytometer.
# [3] = Metabolic stability test (human); assay type: in vitro ADME; conditions: human liver microsomes, 37° C., 30 minutes, NADPH
# Procedure: as §1, §2
# recombinant human ACC1 = recombinant human ACC1 (Homo sapiens (Human), UniProt Q13085); assay: Measurement of inhibitory activity of human ACC1; assay type: biochemical; conditions: read-out: IC50 hACC1
# From the text: A cDNA encoding human ACC1 protein (1 amino acid residue to 2346 amino acid residues from the N-terminus) was cloned from a human liver cDNA library (BioChain Institute Inc.), myc tag and His-tag sequences were introduced at the 3′ end, and then inserted into pIEXBAC3 (Novagen). A recombinant baculovirus was produced in accordance with the protocol for FlashBACGOLD (Oxford Expression Technologies Ltd.), and Sf-9 cells were infected therewith to express human ACC1 protein. The recovered cells were crushed, filtered through a filter, and then subjected to Ni affinity chromatography and anion exchange chromatography. Fractions containing human ACC1 protein were collected to obtain recombinant human ACC1.
# The recombinant human ACC1 and the recombinant human ACC2 obtained from the above Preparation Examples were preincubated in an assay buffer (50 mM HEPES-KOH (pH 7.4), 10 mM magnesium chloride, 6 to 10 mM potassium citrate, 4 mM reduced glutathione, and 1.5 mg/ml bovine serum albumin) for 1 hour. Then, 5 μL of the pre-incubated enzyme solution and 5 μL of a substrate solution (50 mM HEPES-KOH (pH 7.4), 1 mM ATP, 0.8 mM acetyl-CoA, and 25 to 50 mM potassium bicarbonate) were added to a 384-well microplate into which 0.2 μL of each of solutions of the compound of the present invention (DMSO) had been dispensed, and the mixture was centrifuged and shaken, and then incubated in a wet box at room temperature for 1 to 3 hours. After incubation, the enzymatic reaction was stopped by addition of EDTA, and then the compound was co-crystallized with an α-cyano-4-hydroxy cinnamic acid (CHCA) matrix on a MALDI target plate, and measurement was performed in a reflector negative mode using a matrix-assisted laser desorption ionization-time-of-flight mass spectrometer (MALDI-TOF MS). Deprotonated ions of the substrate acetyl-CoA (AcCoA) and the reaction product malonyl-CoA (MalCoA) were detected, and the intensity of each signal was used to calculate a conversion rate to malonyl-CoA […], i.e., intensity of [MalCoA-H]-/(intensity of [MalCoA-H]-+intensity of [AcCoA-H]-). […] The potassium citrate concentration in the assay buffer, the potassium bicarbonate concentration in the substrate solution, and the incubation time were adjusted within the above concentrations or reaction times for each lot of the enzyme to be used.
smiles,measurement,setting,value
CC(=O)N[C@@H](C)CC[C@H]1OC[C@H](Oc2nc3c(F)cc(OC4CC4)cc3n2C)CO1 [Compound I-13],Amount of triglyceride in liver,[1]; 30 mg/kg,234 ± 21 mg/g tissue
same,Sirius red-positive area rate,[1]; 30 mg/kg,3.05 ± 0.28 %
same,3-hydroxybutyric acid in plasma,"[1]; 30 mg/kg, Week 0",252 ± 73
same,Plasma triglyceride concentration,"[1]; 30 mg/kg, Week 0",680 ± 81 mg/dL
same,3-hydroxybutyric acid in plasma,"[1]; 30 mg/kg, Week 1",397 ± 140
same,Plasma triglyceride concentration,"[1]; 30 mg/kg, Week 1",299 ± 27 mg/dL
same,3-hydroxybutyric acid in plasma,"[1]; 30 mg/kg, Week 4",1888 ± 570
same,Plasma triglyceride concentration,"[1]; 30 mg/kg, Week 4",600 ± 59 mg/dL
same,Change in hemoglobin A1c (day 26 of administration) − (before start of administration),[1]; 30 mg/kg,1.10% and 2.61% and 0.359% and 0.580% and 0.200% and 1.37% and 0.484% and 1.14% and 1.05%
same,"Hemoglobin A1c, Before start of administration",[1]; 30 mg/kg,6.40% and 6.59% and 6.70% and 6.32% and 7.03% and 7.49% and 7.05% and 6.78% and 6.28%
same,"Hemoglobin A1c, Day 26 of administration",[1]; 30 mg/kg,7.50% and 9.21% and 7.05% and 6.90% and 7.23% and 8.86% and 7.54% and 7.91% and 7.32%
same,Amount of triglyceride in liver,[1]; 45 mg/kg,211 ± 19 mg/g tissue
same,Sirius red-positive area rate,[1]; 45 mg/kg,2.65 ± 0.34 %
same,3-hydroxybutyric acid in plasma,"[1]; 45 mg/kg, Week 0",291 ± 130
same,Plasma triglyceride concentration,"[1]; 45 mg/kg, Week 0",644 ± 89 mg/dL
same,3-hydroxybutyric acid in plasma,"[1]; 45 mg/kg, Week 1",829 ± 490
same,Plasma triglyceride concentration,"[1]; 45 mg/kg, Week 1",279 ± 40 mg/dL
same,3-hydroxybutyric acid in plasma,"[1]; 45 mg/kg, Week 4",1803 ± 640
same,Plasma triglyceride concentration,"[1]; 45 mg/kg, Week 4",572 ± 54 mg/dL
same,Change in hemoglobin A1c (day 26 of administration) − (before start of administration),[1]; 45 mg/kg,0.591% and 0.429% and −0.888% and −0.504% and 2.17% and 0.162% and 0.562% and 1.50% and 0.667%
same,"Hemoglobin A1c, Before start of administration",[1]; 45 mg/kg,6.58% and 6.74% and 7.06% and 5.77% and 5.87% and 7.03% and 6.43% and 6.83% and 7.47%
same,"Hemoglobin A1c, Day 26 of administration",[1]; 45 mg/kg,7.17% (2×) and 6.17% and 5.26% and 8.04% and 7.19% and 6.99% and 8.33% and 8.13%
same,Amount of triglyceride in liver,[1]; 60 mg/kg,235 ± 20 mg/g tissue
same,Sirius red-positive area rate,[1]; 60 mg/kg,2.75 ± 0.36 %
same,3-hydroxybutyric acid in plasma,"[1]; 60 mg/kg, Week 0",217 ± 28
same,Plasma triglyceride concentration,"[1]; 60 mg/kg, Week 0",829 ± 97 mg/dL
same,3-hydroxybutyric acid in plasma,"[1]; 60 mg/kg, Week 1",351 ± 72
same,Plasma triglyceride concentration,"[1]; 60 mg/kg, Week 1",322 ± 30 mg/dL
same,3-hydroxybutyric acid in plasma,"[1]; 60 mg/kg, Week 4",1260 ± 170
same,Plasma triglyceride concentration,"[1]; 60 mg/kg, Week 4",641 ± 86 mg/dL
same,Change in hemoglobin A1c (day 26 of administration) − (before start of administration),[1]; 60 mg/kg,0.493% and 0.0708% and 0.696% and 0.463% and 0.150% and −0.0552% and 0.719% and −0.0504%
same,"Hemoglobin A1c, Before start of administration",[1]; 60 mg/kg,5.50% and 6.36% and 6.46% and 6.60% and 7.12% and 6.80% and 6.55% and 5.83%
same,"Hemoglobin A1c, Day 26 of administration",[1]; 60 mg/kg,5.99% and 6.43% and 7.16% and 7.06% and 7.27% (2×) and 6.74% and 5.78%
same,Sirius red-positive area rate vs vehicle administration group (in words),"[1]; dose of 30, 45, or 60 mg/kg",significantly lower than that of the vehicle administration group
same,amount of triglyceride in the liver vs vehicle administration group (in words),"[1]; mouse, in vivo",not significantly different from that in the vehicle administration group
same,concentration of 3-hydroxybutyric acid in plasma vs vehicle administration group (in words),"[1]; mouse, in vivo",tended to be higher than that in the vehicle administration group
same,hemoglobin A1c (in words),"[1]; mouse, in vivo",tended to suppress an increase in hemoglobin A1c
same,plasma triglyceride concentration vs vehicle administration group (in words),"[1]; mouse, in vivo",not significantly different from that in the vehicle administration group
same,"Amount of compound remained, Rat",[2],87%
same,Platelet count,Crl:CD (SD) rats; 50 mg/kg/day,1079 ± 73
same,Platelet count,Crl:CD (SD) rats; 100 mg/kg/day,1048 ± 65
same,Platelet count,Crl:CD (SD) rats; 200 mg/kg/day,1122 ± 87
same,platelet count in SD rats (in words),Crl:CD (SD) rats,did not affect the platelet count
same,"Amount of compound remained, Human",[3],95.4%
same,pIC50,recombinant human ACC1,6.04
C[C@@H](CO[C@H]1CC[C@H](Oc2nc3c(F)cc(OC4CC4)cc3n2C)CC1)NC(N)=O [Compound I-12],Amount of triglyceride in liver,[1]; 5.5 mg/kg,451 ± 17 mg/g tissue
same,Sirius red-positive area rate,[1]; 5.5 mg/kg,1.26 ± 0.13 %
same,3-hydroxybutyric acid in plasma,"[1]; 5.5 mg/kg, Week 0",184 ± 20
same,Plasma triglyceride concentration,"[1]; 5.5 mg/kg, Week 0",790 ± 95 mg/dL
same,3-hydroxybutyric acid in plasma,"[1]; 5.5 mg/kg, Week 1",470 ± 93
same,Plasma triglyceride concentration,"[1]; 5.5 mg/kg, Week 1",369 ± 32 mg/dL
same,3-hydroxybutyric acid in plasma,"[1]; 5.5 mg/kg, Week 2",1108 ± 120
same,Plasma triglyceride concentration,"[1]; 5.5 mg/kg, Week 2",464 ± 30 mg/dL
same,3-hydroxybutyric acid in plasma,"[1]; 5.5 mg/kg, Week 4",1354 ± 170
same,Plasma triglyceride concentration,"[1]; 5.5 mg/kg, Week 4",513 ± 23 mg/dL
same,Amount of triglyceride in liver,[1]; 11 mg/kg,441 ± 11 mg/g tissue
same,Sirius red-positive area rate,[1]; 11 mg/kg,1.52 ± 0.18%
same,3-hydroxybutyric acid in plasma,"[1]; 11 mg/kg, Week 0",178 ± 8.7
same,Plasma triglyceride concentration,"[1]; 11 mg/kg, Week 0",619 ± 76 mg/dL
same,3-hydroxybutyric acid in plasma,"[1]; 11 mg/kg, Week 1",449 ± 140
same,Plasma triglyceride concentration,"[1]; 11 mg/kg, Week 1",382 ± 44 mg/dL
same,3-hydroxybutyric acid in plasma,"[1]; 11 mg/kg, Week 2",1314 ± 370
same,Plasma triglyceride concentration,"[1]; 11 mg/kg, Week 2",497 ± 39 mg/dL
same,3-hydroxybutyric acid in plasma,"[1]; 11 mg/kg, Week 4",1508 ± 380
same,Plasma triglyceride concentration,"[1]; 11 mg/kg, Week 4",500 ± 27 mg/dL
same,Sirius red-positive area rate vs vehicle administration group (in words),[1]; dose of 5.5 mg/kg,significantly lower than that of the vehicle administration group
same,amount of triglyceride in the liver vs vehicle administration group (in words),"[1]; mouse, in vivo",not significantly different from that in the vehicle administration group
same,concentration of 3-hydroxybutyric acid in plasma vs vehicle administration group (in words),"[1]; mouse, in vivo",tended to be higher than that in the vehicle administration group
same,plasma triglyceride concentration vs vehicle administration group (in words),"[1]; mouse, in vivo",not significantly different from that in the vehicle administration group
same,"Amount of compound remained, Rat",[2],85.5%
same,Platelet count,Crl:CD (SD) rats; 100 mg/kg/day,987 ± 86
same,Platelet count,Crl:CD (SD) rats; 300 mg/kg/day,988 ± 43
same,Platelet count,Crl:CD (SD) rats; 600 mg/kg/day,1061 ± 85
same,platelet count in SD rats (in words),Crl:CD (SD) rats,did not affect the platelet count
same,"Amount of compound remained, Human",[3],83.3%
same,pIC50,recombinant human ACC1,5.16
